Laboratory results as given in patent publication US20240132498A1, “CRYSTALLINE FORMS OF 5-(3,4-DIFLUOROBENZYL)-8-((1R,4R)-4-METHYLCYCLOHEXYL)-6,9-DIOXO-2,5,8-TRIAZASPIRO[3.5]NONANE-2-CARBALDEHYDE” (Cytokinetics, Incorporated, priority 2022, published 2024).

Key:
[1] = Monkey cassette dosing IV pharmacokinetics; type: in vivo; settings: male, plasma
CYP2C9 = target: T1, CYP2C9 (Homo sapiens, UniProt P11712); assay: Time-dependent inhibition of CYP450 enzymes in human liver microsomes: CYP2C9; type: in vitro ADME
T1 construct: from tissue; host or cells: pooled human liver microsomes
Protocol: (§1) An assessment of the time-dependent Inhibitory Potential of the test compounds against Principal Human Cytochrome P450 Isozymes using Human Liver Microsomes was also carried out using standard methods (Grimm et al, Drug Metab. Dispos., Jul; 37(7):1355-70. doi: 10.1124/dmd.109.026716, 2009). Pooled human microsomes and selective CYP probe substrates were used for in vitro assessment of test compounds at 25 and 50 μM as time-dependent inhibitors of […] human hepatic cytochrome P450 isozymes (CYP1A2, 2B6, 2C9, 2C19, 2D6, and 3A4). LC-MS/MS was used to quantify metabolite formation. The inhibition of each P450 enzyme in human liver microsomes was measured as the percentage decrease in the activity of marker metabolite formation as measured by LC-MS/MS compared to non-inhibited controls (=100% activity) at time zero and after 30 minutes incubation. The occurrence of any time dependent inhibition was then expressed as the fold change in enzyme activity at time zero relative to the activity after 30 minutes incubation. The time dependent inhibition for the compound 5-(3,4-difluorobenzyl)-8-((1 r,4r)-4-methylcyclohexyl)-6,9-dioxo-2,5, 8-triazaspiro [3.5]nonane-2-carbaldehyde (Compound 1) against CYP1A2, […], CYP2C8, CYP2C9, CYP2C19, CYP2D6, CYP3A4-M and CYP3A4-T is shown in Table B-12.

CYP2B6 = target: T2, CYP2B6 (Homo sapiens, UniProt P20813); assay: Time-dependent inhibition of CYP450 enzymes in human liver microsomes: CYP2B6; type: in vitro ADME
T2 construct: from tissue; host or cells: pooled human liver microsomes
T2 sequence (P20813 1-491): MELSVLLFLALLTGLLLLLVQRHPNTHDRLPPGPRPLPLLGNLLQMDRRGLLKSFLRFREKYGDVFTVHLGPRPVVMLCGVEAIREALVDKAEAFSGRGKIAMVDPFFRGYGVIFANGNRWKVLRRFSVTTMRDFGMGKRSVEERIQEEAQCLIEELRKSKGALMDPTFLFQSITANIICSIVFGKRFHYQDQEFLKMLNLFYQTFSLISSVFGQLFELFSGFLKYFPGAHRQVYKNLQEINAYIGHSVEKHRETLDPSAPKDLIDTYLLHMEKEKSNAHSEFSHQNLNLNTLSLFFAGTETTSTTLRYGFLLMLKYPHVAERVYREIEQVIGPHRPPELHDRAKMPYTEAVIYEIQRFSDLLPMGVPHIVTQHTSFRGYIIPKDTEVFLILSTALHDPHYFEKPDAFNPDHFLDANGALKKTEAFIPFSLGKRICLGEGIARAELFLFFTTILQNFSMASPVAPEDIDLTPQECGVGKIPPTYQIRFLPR
Protocol: as §1

[2] = Competitive slurry experiments between Form I and Form II; type: physicochemical; settings: competitive slurries of a mechanical mixture of Form I and Form II, range of temperatures (5-50)
Description: The results of the competitive slurry experiments are provided below in Table 6.

[3] = Short-term static storage stability of the solid (XRPD, HPLC); type: physicochemical
Protocol: Purity analysis was performed on an Agilent HP1100/Infinity 111260 series system equipped with a diode array detector and using OpenLAB software. The full method details are provided below.
For short-term (8 days or fewer) stability experiments, solid material was placed into open vials at elevated storage conditions, unless otherwise stated. These conditions were achieved using saturated salt solutions at specific temperatures within sealed containers. Storage containers were pre-equilibrated prior to input of samples.

[4] = Long-term storage stability of the solid (1, 3, 6 months); type: physicochemical
Description: For long-term (1 month or longer) stability experiments, solid material was placed into LDPE bags and sealed in a HDPE container at elevated storage conditions, unless otherwise stated.

T1 sequence (P11712 whole entry): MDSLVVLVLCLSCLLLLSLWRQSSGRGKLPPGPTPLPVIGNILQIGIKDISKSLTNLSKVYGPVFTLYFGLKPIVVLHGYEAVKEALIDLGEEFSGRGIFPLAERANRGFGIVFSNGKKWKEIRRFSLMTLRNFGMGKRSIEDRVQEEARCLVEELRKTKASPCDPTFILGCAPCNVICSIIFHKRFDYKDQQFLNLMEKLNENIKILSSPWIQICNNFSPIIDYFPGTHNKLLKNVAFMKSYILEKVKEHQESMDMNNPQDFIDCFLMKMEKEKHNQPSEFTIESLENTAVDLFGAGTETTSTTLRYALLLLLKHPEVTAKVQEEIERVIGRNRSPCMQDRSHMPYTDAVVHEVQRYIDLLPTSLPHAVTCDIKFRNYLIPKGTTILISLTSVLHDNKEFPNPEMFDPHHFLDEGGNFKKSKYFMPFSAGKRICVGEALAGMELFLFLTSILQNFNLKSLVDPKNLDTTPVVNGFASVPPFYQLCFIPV

C[C@H]1CC[C@H](N2CC(=O)N(Cc3ccc(F)c(F)c3)C3(CN(C=O)C3)C2=O)CC1 [Compound 1, 5-(3,4-difluorobenzyl)-8-((1r,4r)-4-methylcyclohexyl)-6,9-dioxo-2,5,8-triazaspiro[3.5]nonane-2-carbaldehyde]
clearance [1]: 13.1 mL/min/kg | half-life [1]: 8.69 h | Vd ([1]; read-out: Vss): 8.8 L/kg | (% Activity NADPH T0)/(% Activity NADPH T30) (CYP2C9; CYP2C9, 25 μM): 1.0 | (% Activity NADPH T0)/(% Activity NADPH T30) (CYP2C9; CYP2C9, 50 μM): 0.9 | activity at 30 min, 25 µM (CYP2C9; human, pooled human liver microsomes, CYP2C9, 25 μM, 30 minutes incubation, read-out: % Activity NADPH T30): 84% | activity at 0 min, 25 µM (CYP2C9; human, pooled human liver microsomes, CYP2C9, 25 μM, time zero, read-out: % Activity NADPH T0): 83% | activity at 30 min, 50 µM (CYP2C9; human, pooled human liver microsomes, CYP2C9, 50 μM, 30 minutes incubation, read-out: % Activity NADPH T30): 71% | activity at 0 min, 50 µM (CYP2C9; human, pooled human liver microsomes, CYP2C9, 50 μM, time zero, read-out: % Activity NADPH T0): 63% | (% Activity NADPH T0)/(% Activity NADPH T30) (CYP2B6; CYP2B6, 25 μM): 1.1 | (% Activity NADPH T0)/(% Activity NADPH T30) (CYP2B6; CYP2B6, 50 μM): 1.0 | activity at 30 min, 25 µM (CYP2B6; human, pooled human liver microsomes, CYP2B6, 25 μM, 30 minutes incubation, read-out: % Activity NADPH T30): 84% | activity at 0 min, 25 µM (CYP2B6; human, pooled human liver microsomes, CYP2B6, 25 μM, time zero, read-out: % Activity NADPH T0): 95% | activity at 30 min, 50 µM (CYP2B6; human, pooled human liver microsomes, CYP2B6, 50 μM, 30 minutes incubation, read-out: % Activity NADPH T30): 76% | activity at 0 min, 50 µM (CYP2B6; human, pooled human liver microsomes, CYP2B6, 50 μM, time zero, read-out: % Activity NADPH T0): 76%

C[C@H]1CC[C@H](N2CC(=O)N(Cc3ccc(F)c(F)c3)C3(CN(C=O)C3)C2=O)CC1 [Form II, 5-(3,4-difluorobenzyl)-8-((1r,4r)-4-methylcyclohexyl)-6,9-dioxo-2,5,8-triazaspiro[3.5]nonane-2-carbaldehyde]
relative thermodynamic stability of Form I and Form II [2]: most stable form | HPLC purity ([3]; Before Storage): 98.2% | XRPD ([3]; Before Storage): Form II | XRPD ([3]; Storage at 25° C./97% RH for 8 days): Unchanged by XRPD | XRPD ([3]; Storage at 40° C./75% RH for 8 days): Unchanged by XRPD | Assay ([4]; 25° C./60% RH, 1 month): 99.0 % w/w | Purity ([4]; 25° C./60% RH, 1 month): 99.1% | Total Impurities ([4]; 25° C./60% RH, 1 month): 0.92% | Water Content ([4]; 25° C./60% RH, 1 month): 0.02 % w/w | Assay ([4]; 25° C./60% RH, 3 months): 98.8 % w/w | Purity ([4]; 25° C./60% RH, 3 months): 99.1% | Total Impurities ([4]; 25° C./60% RH, 3 months): 0.91% | Water Content ([4]; 25° C./60% RH, 3 months): 0.01 % w/w | Assay ([4]; 25° C./60% RH, 6 months): 99.2 % w/w | Total Impurities ([4]; 25° C./60% RH, 6 months): 0.93% | Water Content ([4]; 25° C./60% RH, 6 months): 0.09 % w/w | XRPD ([4]; 25° C./60% RH, 6 months): Form II | Assay ([4]; 40° C./75% RH, 1 month): 98.6 % w/w | Purity ([4]; 40° C./75% RH, 1 month): 99.1% | Total Impurities ([4]; 40° C./75% RH, 1 month): 0.92% | Water Content ([4]; 40° C./75% RH, 1 month): 0.01 % w/w | Assay ([4]; 40° C./75% RH, 3 months): 97.9 % w/w | Purity ([4]; 40° C./75% RH, 3 months): 99.1% | Total Impurities ([4]; 40° C./75% RH, 3 months): 0.9% | Water Content ([4]; 40° C./75% RH, 3 months): 0.01 % w/w | Assay ([4]; 40° C./75% RH, 6 months): 99.5 % w/w | Total Impurities ([4]; 40° C./75% RH, 6 months): 0.91% | Water Content ([4]; 40° C./75% RH, 6 months): 0.06 % w/w | XRPD ([4]; 40° C./75% RH, 6 months): Form II | Assay ([4]; Initial): 99.1 % w/w | Purity ([4]; Initial): 99.1% | Total Impurities ([4]; Initial): 0.91% | Water Content ([4]; Initial): 0.02 % w/w | XRPD ([4]; Initial): Form II
